Source: patent US20080140450A1, “Treatment of metabolic syndrome with norfluoxetine” (AMPLA Pharmaceuticals Inc., priority 2006, published 2008)

Experiments:
CB1 receptor = CB1 receptor (Homo sapiens, UniProt P21554); assay: functional activity versus the CB1 receptor; conditions: qualitative statement, no method or numbers given
Description: Without wishing to be restricted by the proposal, this cannabinoid activity may mediate the utility of these compounds for the treatment of metabolic syndrome or the disorders associated with metabolic syndrome.

[1] = system: monoamine uptake, especially serotonin; conditions: qualitative, known from U.S. Pat. No. 4,313,896; cited from earlier work

CB1 receptor, sequence (P21554 whole entry): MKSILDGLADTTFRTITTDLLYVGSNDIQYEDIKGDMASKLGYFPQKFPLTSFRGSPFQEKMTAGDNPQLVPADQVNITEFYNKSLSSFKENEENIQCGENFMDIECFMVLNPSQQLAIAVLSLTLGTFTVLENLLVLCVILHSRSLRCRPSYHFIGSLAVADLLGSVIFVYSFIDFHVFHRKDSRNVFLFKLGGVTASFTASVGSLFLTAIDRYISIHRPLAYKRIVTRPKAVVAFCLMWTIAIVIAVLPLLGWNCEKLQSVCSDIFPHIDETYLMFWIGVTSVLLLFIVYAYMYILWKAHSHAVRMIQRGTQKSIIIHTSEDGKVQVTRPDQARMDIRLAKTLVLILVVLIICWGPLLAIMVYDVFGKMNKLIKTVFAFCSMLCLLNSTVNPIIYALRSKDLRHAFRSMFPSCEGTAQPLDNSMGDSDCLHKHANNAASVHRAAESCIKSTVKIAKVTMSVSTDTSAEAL

SMILES | functional activity versus the CB1 receptor (mode of action) (CB1 receptor) | block of monoamine uptake [1]
NCCC(Oc1ccc(C(F)(F)F)cc1)c1ccccc1 (racemic) [Norfluoxetine, 3-(4-trifluoromethylphenoxy)-3-phenylpropylamine] | antagonist of CB1 | block monoamine uptake, especially serotonin
CNCC[C@@H](Oc1ccc(C(F)(F)F)cc1)c1ccccc1 [(R)-fluoxetine] | antagonist of CB1 | –
CNCC[C@H](Oc1ccc(C(F)(F)F)cc1)c1ccccc1 [(S)-Fluoxetine] | inverse agonist of CB1 | –
